Source: the supplement of paper PMC4862054

Columns and labels:
Assay in all cases: normalised response (% of control), CellTiter-Glo; higher = more viable cells (100 = DMSO, 0 = benzethonium chloride kill control)
Conditions in all cases: incubation time: 72 h
MDA-MB-231 = tested on: MDA-MB-231
In short: (§1)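 Breast cancer cell lines, seeded at 20 µl suspension per well, were incubated for 72 h in 384-well plates containing compound at 5 concentrations. These concentrations rose in 10-fold steps over a 10,000-fold range set for each compound. CellTox Green fluorescence (485/520 nm) was read, then CellTiter-Glo luminescence after 10 min at room temperature, and each plate was normalised to 0.1 % DMSO (100) and a positive kill control (0). Values are normalised signals, each at one concentration.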

HDQ-P1 = tested on: HDQ-P1
In short: as §1

MFM-223 = tested on: MFM-223
In short: as §1

HCC1143 = tested on: HCC1143
In short: as §1

BT-549 = tested on: BT-549
In short: as §1

BT-474 = tested on: BT-474
In short: as §1

SK-BR-3 = tested on: SK-BR-3
In short: as §1

DU-4475 = tested on: DU-4475
In short: as §1

HCC1937 = tested on: HCC1937
In short: as §1

MDA-MB-468 = tested on: MDA-MB-468
In short: as §1

HCC1599 = tested on: HCC1599
In short: as §1

CAL-51 = tested on: CAL-51
In short: as §1

MCF-10A = tested on: MCF-10A
In short: as §1

Hs578T = tested on: Hs578T
In short: as §1

CAL-148 = tested on: CAL-148
In short: as §1

MDA-MB-453 = tested on: MDA-MB-453
In short: as §1

CAL-85-1 = tested on: CAL-85-1
In short: as §1

CAL-120 = tested on: CAL-120
In short: as §1

MDA-MB-436 = tested on: MDA-MB-436
In short: as §1

Structure (SMILES)	normalised response (MDA-MB-231) [%]	normalised response (HDQ-P1) [%]	normalised response (MFM-223) [%]	normalised response (HCC1143) [%]	normalised response (BT-549) [%]	normalised response (BT-474) [%]	normalised response (SK-BR-3) [%]	normalised response (DU-4475) [%]	normalised response (HCC1937) [%]	normalised response (MDA-MB-468) [%]	normalised response (HCC1599) [%]	normalised response (CAL-51) [%]	normalised response (MCF-10A) [%]	normalised response (Hs578T) [%]	normalised response (CAL-148) [%]	normalised response (MDA-MB-453) [%]	normalised response (CAL-85-1) [%]	normalised response (CAL-120) [%]	normalised response (MDA-MB-436) [%]
COc1ccc(-c2cc3c(C)nc(N)nc3n([C@H]3CC[C@H](OCCO)CC3)c2=O)cn1 (1 nM)	96.5	89.5	85.4	88.6	101	93.4	80.9	90.7	96.2	97	104	112	84.8	96.8	82.3	97.4	93.8	91.1	83.5
Cc1c(Cn2c(C)nc3c(C(=O)O)cc(N4CCOCC4)cc32)cccc1C(F)(F)F (1 nM)	107	103	104	108	99.8	95.9	106	99.1	96	97.5	73.8	104	113	98.5	101	100	96.9	101	95.8
COc1ccc(-c2cc3c(C)nc(N)nc3n([C@H]3CC[C@H](OCCO)CC3)c2=O)cn1 (10 nM)	90.7	87.2	88.9	96.5	89.6	88.8	67.2	93.2	86.2	82.6	89.3	82.8	79.8	94.8	87.8	83.5	90.8	92.3	85.4
Cc1c(Cn2c(C)nc3c(C(=O)O)cc(N4CCOCC4)cc32)cccc1C(F)(F)F (10 nM)	107	101	104	104	94.8	101	100	102	98.8	105	118	79.4	118	105	112	100	99.5	99.5	98.9
CC/C(=C(\c1ccc(O)cc1)c1ccc(OCCN(C)C)cc1)c1ccccc1 [4-hydroxytamoxifen] (1 nM)	96.6	97.7	101	95	107	101	107	99.4	99.6	98.8	96	91.2	101	108	102	107	100	98.6	103
CC/C(=C(\c1ccc(O)cc1)c1ccc(OCCN(C)C)cc1)c1ccccc1 [4-hydroxytamoxifen] (10 nM)	96.8	95.7	104	101	97.1	96.7	98.3	103	97	108	93.5	88.4	109	102	110	112	97	98.3	90
CCCCC/C=C/C=C1/C(=O)C=C[C@@H]1C/C=C\CCCC(=O)O [15D-PGJ2] (0.08 nM)	106	104	103	102	98.4	102	106	96.6	94.5	95.8	101	96.8	103	99.6	108	111	95.3	102	102
O=C(Nc1c[nH]nc1-c1nc2ccc(CN3CCOCC3)cc2[nH]1)NC1CC1 [AT9283] (1 nM)	102	103	103	102	97.3	95.7	–	102	102	97.5	101	103	101	98.7	94.5	98.6	98.7	93.4	103
CCC/C=C/C=C/C(=O)O[C@H]1/C(=C/C(=O)OC)C[C@H]2C[C@H]([C@@H](C)O)OC(=O)C[C@H](O)C[C@@H]3C[C@H](OC(C)=O)C(C)(C)[C@](O)(C[C@@H]4C/C(=C/C(=O)OC)C[C@H](/C=C/C(C)(C)[C@]1(O)O2)O4)O3 [Bryostatin 1] (0.1 nM)	103	91.5	105	101	95.8	103	–	97	99	94.3	116	119	109	95.5	115	97.7	98.2	91.1	107
CO[C@@H](C(=O)N1Cc2[nH]nc(NC(=O)c3ccc(N4CCN(C)CC4)cc3)c2C1)c1ccccc1 [Danusertib] (10 nM)	96.6	97.9	103	95.7	99.7	102	–	102	93.8	87.1	98.1	113	103	99.2	95.7	103	94.9	93.4	105
Cc1nc(Nc2ncc(C(=O)Nc3c(C)cccc3Cl)s2)cc(N2CCN(CCO)CC2)n1 [Dasatinib] (1 nM)	87.9	93.5	97.7	97.9	103	93.5	–	96.4	99.6	95.6	115	106	90	103	93.7	101	101	98.9	94.5
O=S(=O)(c1cccc2cnccc12)N1CCCNCC1 [Fasudil] (50 nM)	99.9	96.6	99.3	102	101	97.8	–	104	99.4	101	98.5	117	104	94.9	102	104	97	94.3	106
Cc1cccc(-c2nn3c(c2-c2ccnc4ccc(C(N)=O)cc24)CCC3)n1 [Galunisertib] (1 nM)	105	102	107	111	102	109	–	107	99	104	103	92.5	102	103	123	115	99.5	101	108
C[C@]12O[C@H](C[C@]1(O)CO)n1c3ccccc3c3c4c(c5c6ccccc6n2c5c31)CNC4=O [Lestaurtinib] (1 nM)	99.8	95.4	101	102	97.3	104	–	97.7	98.9	102	90.8	133	96.6	101	100	94.3	104	93.9	100
Nc1ccccc1NC(=O)c1ccc(CNc2nccc(-c3cccnc3)n2)cc1 [Mocetinostat] (10 nM)	103	110	100	97.6	98.3	98.4	–	105	104	101	94.3	129	106	103	98.1	105	95.7	97	99.1
Cc1ccc(Nc2nccc(N(C)c3ccc4c(C)n(C)nc4c3)n2)cc1S(N)(=O)=O [Pazopanib] (10 nM)	98.2	97.2	98	102	93.9	98.2	–	107	100	104	100	82.8	97.2	94.8	104	109	100	91.9	107
CS(=O)(=O)N1CCN(Cc2cc3nc(-c4cccc5[nH]ncc45)nc(N4CCOCC4)c3s2)CC1 [Pictilisib] (1 nM)	101	97.3	104	–	104	92.7	107	104	95	99.5	96.8	102	102	99.7	93.1	112	119	93.9	91.1
O=C(NC[C@H](O)CO)c1ccncc1Nc1ccc(I)cc1F [Pimasertib] (10 nM)	97.6	81.1	99.2	94.2	91.4	102	–	83.9	102	91.9	105	124	66.6	92.2	90.8	99.7	87.8	103	107
c1cc(CN2CCCNCCNCCCNCC2)ccc1CN1CCCNCCNCCCNCC1 [Plerixafor] (10 nM)	99	103	88.6	105	99.6	97.2	–	91.1	102	94.1	95.2	82.7	81.5	97.7	91.1	81.9	93.1	96.2	97.3
CNC(=O)c1cc(Oc2ccc(NC(=O)Nc3ccc(Cl)c(C(F)(F)F)c3)cc2)ccn1 [Sorafenib] (1 nM)	102	102	107	100	94.7	104	–	103	101	106	109	119	105	102	114	93.8	104	98.2	96.4
CC[C@@]1(O)C(=O)OCc2c1cc1n(c2=O)Cc2cc3c(CN(C)C)c(O)ccc3nc2-1 [Topotecan] (10 nM)	94.1	98.4	99.9	93.9	90.3	98.2	–	95.4	95.8	97.6	93.2	91.9	92.7	100	103	104	95.8	96.1	94.4
